Measured values taken from ChEMBL document CHEMBL1201862, “PubChem BioAssay data set” (2004).
Activity calls are given as the source filed them.

How the values were obtained:
[1] = target: T1, Ubiquitin-conjugating enzyme E2 N (Homo sapiens, UniProt P61088); assay type: functional;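 further: Dose-response confirmation in a TR-FRET assay detecting UBC13-driven polyubiquitin chain formation, inhibition measured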
T1 sequence (P61088 whole entry): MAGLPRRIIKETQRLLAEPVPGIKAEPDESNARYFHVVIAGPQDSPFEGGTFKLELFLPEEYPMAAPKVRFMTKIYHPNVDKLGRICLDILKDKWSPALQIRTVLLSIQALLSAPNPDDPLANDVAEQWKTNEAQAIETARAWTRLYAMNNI

[2] = target: Voltage-dependent T-type calcium channel subunit alpha-1H (Homo sapiens, UniProt O95180); assay type: functional;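 further: channel activity triggered by adding a high calcium stimulation buffer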
Protein skinhead-1 = target: T2, Protein skinhead-1 (Caenorhabditis elegans, UniProt P34707); assay type: functional
T2 sequence (P34707 whole entry): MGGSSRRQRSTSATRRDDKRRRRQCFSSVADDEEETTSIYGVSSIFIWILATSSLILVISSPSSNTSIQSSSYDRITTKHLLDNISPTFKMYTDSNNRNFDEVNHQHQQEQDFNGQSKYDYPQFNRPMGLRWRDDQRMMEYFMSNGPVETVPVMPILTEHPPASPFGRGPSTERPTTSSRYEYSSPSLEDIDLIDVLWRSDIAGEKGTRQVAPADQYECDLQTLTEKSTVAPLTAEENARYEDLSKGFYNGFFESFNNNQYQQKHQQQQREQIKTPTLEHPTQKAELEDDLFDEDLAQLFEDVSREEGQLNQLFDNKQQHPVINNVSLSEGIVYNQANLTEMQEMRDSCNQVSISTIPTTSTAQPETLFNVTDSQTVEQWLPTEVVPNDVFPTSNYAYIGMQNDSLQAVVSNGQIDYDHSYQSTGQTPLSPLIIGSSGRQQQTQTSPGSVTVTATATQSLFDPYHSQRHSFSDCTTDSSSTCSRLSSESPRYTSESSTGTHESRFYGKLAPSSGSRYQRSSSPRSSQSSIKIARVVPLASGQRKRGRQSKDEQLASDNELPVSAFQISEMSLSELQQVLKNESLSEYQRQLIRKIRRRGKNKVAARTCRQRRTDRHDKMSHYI

[3] = inhibitors of firefly luciferase expression or activity, dose response, H4 neuroglioma cells, luminescence (AID 1990); assay type: functional, cell-based
[4] = Luminescence Cell-Based Dose Response HTS to Identify Inhibitors of 5'UTR Stem-Loop Driven Prion Protein mRNA Translation in H4 Neuroglioblastoma Cells. [Related pubchem assays: 1827 (Project Summary), 1813 (Primary HTS)]; assay type: functional
[5] = inhibitors of SNCA 5'UTR-driven reporter translation, confirmation, H4 neuroglioma cells, luminescence (AID 1988); assay type: functional, cell-based
Vero [6] = assay: cells; assay type: functional, cell-based, Chlorocebus sabaeus
Vero [7] = assay: cells; assay type: functional, Chlorocebus sabaeus
[8] = target: T3, Heat shock factor protein 1 (Mus musculus, UniProt P38532); assay: HSF1 potentiators in luciferase reporter cells, confirmation, cell-based, NIH3T3, luminescence, dose retest (AID 435004); assay type: functional;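 further: stress induced by proteasome inhibitor MG132 added 30 min after compound; luciferase reporter driven by HSF1 response element in NIH3T3 cells; actives raise luminescence as potentiators of the MG132 stress response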
T3 sequence (P38532 whole entry): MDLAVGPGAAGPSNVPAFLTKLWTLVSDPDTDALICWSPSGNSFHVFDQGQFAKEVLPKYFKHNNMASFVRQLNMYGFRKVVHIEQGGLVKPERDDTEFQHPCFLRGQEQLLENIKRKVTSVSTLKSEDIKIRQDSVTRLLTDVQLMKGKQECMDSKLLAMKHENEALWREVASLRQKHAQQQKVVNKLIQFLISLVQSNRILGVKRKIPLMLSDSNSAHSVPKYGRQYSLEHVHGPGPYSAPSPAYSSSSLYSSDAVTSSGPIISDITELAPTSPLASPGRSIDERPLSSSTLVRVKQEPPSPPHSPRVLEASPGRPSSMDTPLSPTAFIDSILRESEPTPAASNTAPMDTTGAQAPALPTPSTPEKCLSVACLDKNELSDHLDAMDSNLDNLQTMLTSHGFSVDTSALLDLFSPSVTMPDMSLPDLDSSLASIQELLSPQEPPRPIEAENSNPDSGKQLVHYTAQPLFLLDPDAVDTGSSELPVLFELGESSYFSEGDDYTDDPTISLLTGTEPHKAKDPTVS

INS1 = assay: beta cell apoptosis inhibitors, cytokine rescue, dose response, luminescence, retest (AID 449756); assay type: functional, cell-based; conditions: Rattus norvegicus;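 further: cell death triggered by IL-1 beta plus TNF-alpha plus IFN-gamma mixture; protective hits raise ATP signal compared with cytokine alone wells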
Large T antigen = Large T antigen (Simian virus 40, UniProt P03070); assay type: functional, Betapolyomavirus macacae;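 further: Confirmatory-stage PubChem screen for compounds that inhibit SV40 T antigen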
[9] = target: T4, Short transient receptor potential channel 4 (Mus musculus, UniProt Q9QUQ5); assay: mouse TRPC4 channel inhibitors, dose response, cell-based, HEK293 TRPC4/mu-opioid, Fluo-4 calcium (AID 434942); assay type: functional;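 further: potency of inhibitors blocking the TRPC4 calcium response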
T4 sequence (Q9QUQ5 whole entry): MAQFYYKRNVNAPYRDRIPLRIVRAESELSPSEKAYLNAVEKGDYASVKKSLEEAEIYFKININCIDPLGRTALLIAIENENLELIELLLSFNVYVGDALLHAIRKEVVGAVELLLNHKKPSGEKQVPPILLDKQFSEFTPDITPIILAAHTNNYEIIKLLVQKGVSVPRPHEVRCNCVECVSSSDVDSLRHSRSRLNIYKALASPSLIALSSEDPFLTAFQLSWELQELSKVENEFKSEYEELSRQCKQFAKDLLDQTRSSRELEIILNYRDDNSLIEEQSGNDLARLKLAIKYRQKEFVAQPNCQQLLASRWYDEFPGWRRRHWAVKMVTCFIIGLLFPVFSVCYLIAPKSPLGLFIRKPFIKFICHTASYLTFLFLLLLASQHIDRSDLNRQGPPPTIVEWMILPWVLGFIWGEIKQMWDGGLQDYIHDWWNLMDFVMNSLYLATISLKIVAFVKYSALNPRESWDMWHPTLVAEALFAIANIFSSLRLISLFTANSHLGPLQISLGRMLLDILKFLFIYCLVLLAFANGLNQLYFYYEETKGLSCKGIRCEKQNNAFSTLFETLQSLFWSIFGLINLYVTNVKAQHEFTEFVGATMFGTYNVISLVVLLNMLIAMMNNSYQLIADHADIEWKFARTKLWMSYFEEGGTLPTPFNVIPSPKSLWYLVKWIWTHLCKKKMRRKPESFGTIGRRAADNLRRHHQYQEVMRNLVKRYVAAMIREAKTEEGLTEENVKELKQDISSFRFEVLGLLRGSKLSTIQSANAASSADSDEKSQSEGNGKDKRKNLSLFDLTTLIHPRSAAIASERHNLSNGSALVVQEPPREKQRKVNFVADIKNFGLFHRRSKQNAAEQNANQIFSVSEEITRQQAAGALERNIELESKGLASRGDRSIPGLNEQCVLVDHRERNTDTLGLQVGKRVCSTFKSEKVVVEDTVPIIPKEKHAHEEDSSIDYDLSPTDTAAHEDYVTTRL

[10] = Luminescence Cell-Based Dose Confirmation HTS to Identify Activators of 5'UTR Stem-Loop Driven Alpha-Synuclein mRNA Translation in H4 Neuroglioblastoma Cells. [Related pubchem assays: 1829 (Project Summary), 1814 (Primary HTS)]; assay type: functional
[11] = Luminescence Cell-Based Dose Response HTS to Identify Activators of Luciferase Translation or Activity in H4 […] Cells. [Related pubchem assays: 1829 (Project Summary), 1814 (Primary HTS)]; assay type: functional
H4 = assay: Luminescence Cell-Based Dose Response HTS to Identify Activators of 5'UTR Stem-Loop Driven Prion Protein mRNA Translation in H4 Neuroglioblastoma Cells. [Related pubchem assays: 1829 (Project Summary), 1814 (Primary HTS)]; assay type: functional; conditions: Homo sapiens
[12] = THP-1 cell cytotoxicity, dose response, cytotoxicity control for non-replicating M. tuberculosis project (AID 489025); assay type: functional
cells [13] = assay type: functional
[14] = test system: Streptococcus sp. 'group A'; assay: growth inhibition of control SK(-) GAS strain, dose response, counter-screen for streptokinase expression inhibitor project, luminescence, kanamycin, BacTiterGlo, confirmation (AID 1900); assay type: functional, organism-based
cells [15] = assay type: functional, cell-based
Streptokinase A = target: T5, Streptokinase A (Streptococcus pyogenes serotype M1, UniProt P10520); assay: S. pyogenes streptokinase expression inhibitors, potency, dose response, plasminogen activation absorbance, OD405 (AID 1914); assay type: functional, Streptococcus pyogenes M1 GAS;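 further: secreted streptokinase activity via plasminogen activation per viability signal from cell pellet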
T5 sequence (P10520 whole entry): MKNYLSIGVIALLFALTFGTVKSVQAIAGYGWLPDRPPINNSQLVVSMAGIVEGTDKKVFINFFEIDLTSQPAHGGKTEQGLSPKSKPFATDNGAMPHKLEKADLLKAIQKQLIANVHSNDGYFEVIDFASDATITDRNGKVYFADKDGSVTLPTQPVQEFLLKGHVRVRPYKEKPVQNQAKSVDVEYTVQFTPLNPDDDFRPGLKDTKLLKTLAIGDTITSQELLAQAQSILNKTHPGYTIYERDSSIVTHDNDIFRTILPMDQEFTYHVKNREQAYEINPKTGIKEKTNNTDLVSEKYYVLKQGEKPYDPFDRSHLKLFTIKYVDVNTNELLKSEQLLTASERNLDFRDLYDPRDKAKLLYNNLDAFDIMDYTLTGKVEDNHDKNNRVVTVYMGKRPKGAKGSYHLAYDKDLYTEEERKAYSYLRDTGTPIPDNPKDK

cells [16] = assay type: functional, cell-based; remark: listed apart in the source
Streptococcus = assay: Group A Streptococcus viability loss, dose response, counter-screen for streptokinase expression inhibitor project, luminescence, BacTiterGlo (AID 1915); assay type: functional, organism-based;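 further: potency for reduction of bacterial viability or growth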

Sequence of Voltage-dependent T-type calcium channel subunit alpha-1H (O95180 whole entry): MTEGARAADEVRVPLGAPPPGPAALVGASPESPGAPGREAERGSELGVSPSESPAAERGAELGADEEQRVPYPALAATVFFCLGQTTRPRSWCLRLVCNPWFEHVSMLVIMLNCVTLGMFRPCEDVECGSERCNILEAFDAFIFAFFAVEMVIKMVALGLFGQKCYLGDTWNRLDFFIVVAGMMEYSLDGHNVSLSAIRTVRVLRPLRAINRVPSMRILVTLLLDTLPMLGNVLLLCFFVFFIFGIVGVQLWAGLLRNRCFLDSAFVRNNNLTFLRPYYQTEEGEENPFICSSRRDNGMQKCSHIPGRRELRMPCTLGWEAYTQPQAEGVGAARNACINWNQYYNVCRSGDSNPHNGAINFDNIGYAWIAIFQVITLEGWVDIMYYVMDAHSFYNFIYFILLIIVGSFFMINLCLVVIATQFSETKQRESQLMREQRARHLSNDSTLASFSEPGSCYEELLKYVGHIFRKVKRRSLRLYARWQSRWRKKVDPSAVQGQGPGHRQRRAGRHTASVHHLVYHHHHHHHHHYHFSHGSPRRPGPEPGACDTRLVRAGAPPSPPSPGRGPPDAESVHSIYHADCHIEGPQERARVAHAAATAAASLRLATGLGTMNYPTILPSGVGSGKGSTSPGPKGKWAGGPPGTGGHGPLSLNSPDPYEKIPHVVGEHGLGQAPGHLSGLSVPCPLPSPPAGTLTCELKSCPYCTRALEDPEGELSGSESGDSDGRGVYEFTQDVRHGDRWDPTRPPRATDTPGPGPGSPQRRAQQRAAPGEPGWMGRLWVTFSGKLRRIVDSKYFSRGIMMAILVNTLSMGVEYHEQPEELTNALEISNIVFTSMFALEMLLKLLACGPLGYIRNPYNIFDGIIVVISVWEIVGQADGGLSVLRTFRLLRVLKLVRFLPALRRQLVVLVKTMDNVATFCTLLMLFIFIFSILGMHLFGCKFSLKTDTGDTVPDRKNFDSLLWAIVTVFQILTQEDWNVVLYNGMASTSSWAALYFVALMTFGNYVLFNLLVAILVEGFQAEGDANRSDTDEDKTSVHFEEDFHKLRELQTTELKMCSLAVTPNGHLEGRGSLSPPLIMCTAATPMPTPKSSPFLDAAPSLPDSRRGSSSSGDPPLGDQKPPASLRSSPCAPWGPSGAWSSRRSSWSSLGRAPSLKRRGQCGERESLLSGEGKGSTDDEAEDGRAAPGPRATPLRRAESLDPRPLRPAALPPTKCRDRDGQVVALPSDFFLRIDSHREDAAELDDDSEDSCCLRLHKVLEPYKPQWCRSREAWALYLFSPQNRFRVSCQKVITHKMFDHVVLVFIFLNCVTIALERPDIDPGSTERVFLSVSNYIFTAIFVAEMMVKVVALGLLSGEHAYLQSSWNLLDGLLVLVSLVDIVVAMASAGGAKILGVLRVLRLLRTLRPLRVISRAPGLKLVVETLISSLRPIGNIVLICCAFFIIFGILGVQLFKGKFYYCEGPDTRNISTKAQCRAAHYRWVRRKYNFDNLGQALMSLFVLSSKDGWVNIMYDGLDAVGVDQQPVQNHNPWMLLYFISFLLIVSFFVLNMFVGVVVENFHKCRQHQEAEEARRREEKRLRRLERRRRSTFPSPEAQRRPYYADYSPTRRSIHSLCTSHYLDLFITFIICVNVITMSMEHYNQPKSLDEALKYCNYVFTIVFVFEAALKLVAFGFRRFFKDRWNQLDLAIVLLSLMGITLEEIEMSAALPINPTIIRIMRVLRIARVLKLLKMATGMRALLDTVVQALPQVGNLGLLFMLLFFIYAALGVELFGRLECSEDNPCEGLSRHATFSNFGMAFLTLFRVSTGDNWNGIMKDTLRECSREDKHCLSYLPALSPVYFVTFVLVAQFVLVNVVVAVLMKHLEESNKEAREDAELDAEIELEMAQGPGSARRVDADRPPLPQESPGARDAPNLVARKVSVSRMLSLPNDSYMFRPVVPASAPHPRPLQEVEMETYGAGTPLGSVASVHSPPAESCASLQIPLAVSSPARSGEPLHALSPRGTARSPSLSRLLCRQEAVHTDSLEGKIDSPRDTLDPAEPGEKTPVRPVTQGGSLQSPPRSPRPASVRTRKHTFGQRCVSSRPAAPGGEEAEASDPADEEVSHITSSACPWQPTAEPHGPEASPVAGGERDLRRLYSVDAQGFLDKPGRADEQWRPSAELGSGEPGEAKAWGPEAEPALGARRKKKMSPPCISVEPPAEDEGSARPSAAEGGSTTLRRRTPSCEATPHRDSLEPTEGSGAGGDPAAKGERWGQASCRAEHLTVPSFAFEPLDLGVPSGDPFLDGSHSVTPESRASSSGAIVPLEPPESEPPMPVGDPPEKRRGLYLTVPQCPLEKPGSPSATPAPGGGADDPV
Sequence of Large T antigen (P03070 whole entry): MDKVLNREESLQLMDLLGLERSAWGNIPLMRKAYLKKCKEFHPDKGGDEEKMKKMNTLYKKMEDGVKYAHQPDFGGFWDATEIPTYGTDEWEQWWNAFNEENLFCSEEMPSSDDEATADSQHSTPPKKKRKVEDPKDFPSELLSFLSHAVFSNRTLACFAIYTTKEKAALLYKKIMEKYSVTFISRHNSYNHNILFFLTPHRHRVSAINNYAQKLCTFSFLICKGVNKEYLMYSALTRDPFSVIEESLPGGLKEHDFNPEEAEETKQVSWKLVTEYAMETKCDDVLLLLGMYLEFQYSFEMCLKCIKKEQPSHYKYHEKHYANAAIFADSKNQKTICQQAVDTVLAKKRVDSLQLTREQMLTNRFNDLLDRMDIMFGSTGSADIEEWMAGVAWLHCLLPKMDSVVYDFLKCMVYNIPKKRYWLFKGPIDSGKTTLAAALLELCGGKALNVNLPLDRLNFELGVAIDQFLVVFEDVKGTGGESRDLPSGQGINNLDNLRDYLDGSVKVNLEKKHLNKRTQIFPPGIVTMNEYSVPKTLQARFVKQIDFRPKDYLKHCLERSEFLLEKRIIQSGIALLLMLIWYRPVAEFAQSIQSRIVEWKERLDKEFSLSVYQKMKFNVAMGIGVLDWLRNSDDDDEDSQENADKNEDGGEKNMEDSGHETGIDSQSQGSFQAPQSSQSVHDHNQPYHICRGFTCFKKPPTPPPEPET

COc1cccc(NC(=O)CSc2nc3ccccc3c(=O)n2CCCC(=O)NCCCN2CCOCC2)c1
IC50 [1]: > 20 µM (inactive)

CC(C(=O)N1c2ccccc2Sc2ccccc21)n1nnc(-c2cccs2)n1 (stereo not drawn)
EC50 [2]: 6.38 µM (active)

Clc1cccc(OCc2nc(-c3ccncc3)no2)c1
IC50 (Protein skinhead-1): 26.6 µM (active)

COC(=O)c1c(NC(=O)c2ccc(OC(C)C)cc2)sc2c1CC(C)(C)NC2(C)C
EC50 [3]: 8.35 µM (active)
EC50 [4]: 8.41 µM (active)
EC50 [5]: 8.31 µM (active)
IC50 [1]: > 20 µM (inactive)
IC50 (Vero [6]; Chlorocebus sabaeus, Vero): 23.3 µM (active)
CC50 (Vero [7]; Chlorocebus sabaeus, Vero): > 25 µM (active)

c1ccc(Cn2nnnc2C(c2cccs2)N2CCc3ccccc3C2)cc1 (stereo not drawn)
EC50 [2]: 0.844 µM (active)
EC50 [8]: > 260 µM (inactive)

CCCCCc1cc(=O)oc2c(C(CCN(CC)CC)c3ccc(OC)cc3)c(OC)cc(OC)c12 (stereo not drawn)
IC50 [1]: > 20 µM (inactive)
AC50 (INS1): 10.8 µM (active)

Cc1cc(C)n(Cc2ccc(C(=O)NCc3ccco3)o2)n1
IC50 (Protein skinhead-1): > 100 µM (inactive)

CCOC(=O)Cc1cc(=O)n(-c2nc3ccccc3s2)[nH]1
IC50 (Large T antigen): > 100 µM (active)

C[C@]12CCCC[C@@H]1CC[C@@H]1[C@@H]2CC[C@@]2(C)[C@H]1CC[C@@]2(O)CNCCO
IC50 [1]: > 20 µM (inactive)
IC50 (Vero [6]; Chlorocebus sabaeus, Vero): > 12.5 µM (active)
IC50 (Vero [6]; vero): 9.19 µM (active)
CC50 (Vero [7]): 19.4 µM (active)
CC50 (Vero [7]; Chlorocebus sabaeus, Vero): 18.4 µM (active)

Cc1ccccc1CSCCNC(=O)CN(c1ccc2c(c1)OCO2)S(C)(=O)=O
EC50 [2]: 5 µM (active)

Cc1ccc(O)c(C(=O)CC(=O)c2cccc(F)c2)c1
IC50 (Vero [6]; Chlorocebus sabaeus, Vero): 21.1 µM (active)
CC50 (Vero [7]; Chlorocebus sabaeus, Vero): > 25 µM (active)

Cc1ccc(C)c(N2CCN(C(=O)CC3Sc4ccccc4NC3=O)CC2)c1 (stereo not drawn)
EC50 [2]: 3.76 µM (active)

COc1ccc(Br)cc1CN1CCN(C(=O)Cc2ccccc2)CC1
EC50 [9]: 6.68 µM (active)

COc1cccc(N2CCN(CC(=O)Nc3nnc(-c4ccccc4)s3)CC2)c1
EC50 [2]: 6.4 µM (active)

N=c1c2c(n(Cc3ccccc3)c3c1CCC3)CCC2
EC50 [9]: 3.35 µM (active)

C=CCNc1nnc(Sc2ncccc2[N+](=O)[O-])s1
EC50 [10]: > 120 µM (not active)
EC50 [11]: 10.3 µM (inconclusive)
EC50 (H4): 17.8 µM (active)
CC50 [12]: 33.4 µM (active)
IC50 (cells [13]): 3.81 µM (active)

COc1cc(/C=N/N(C)C)cc(Br)c1O
IC50 (Large T antigen): 5.17 µM (active)

N#C/C(=C\c1cn(CCOc2ccccc2)c2ccccc12)C(=O)NCC1CCCO1 (stereo not drawn)
EC50 [2]: 5.31 µM (active)

CCC(=O)Nc1ccc(S(=O)(=O)N2CCc3ccccc3C2)cc1
EC50 [2]: 7.83 µM (active)

COc1cccc(C(c2sc3ncnn3c2O)N2CC(C)OC(C)C2)c1 (stereo not drawn)
IC50 (Protein skinhead-1): > 100 µM (inactive)

N#Cc1ccsc1NC(=O)C1CCN(C(=O)c2ccc(Cl)cc2)CC1
IC50 [1]: > 20 µM (inactive)

CC(=O)c1cccc(NS(=O)(=O)c2ccc3c(c2)oc(=O)n3C)c1
IC50 (Protein skinhead-1): > 100 µM (inactive)

Cc1cc(NC(=O)CSc2nc3ccccc3c(=O)n2Cc2ccc(F)cc2)no1
IC50 (Protein skinhead-1): 82.4 µM (inactive)

O=C(CSc1nc2ccccc2n1-c1ccccc1)Nc1ncc(Cl)cc1Cl
IC50 (Vero [6]; Chlorocebus sabaeus, Vero): 4.63 µM (active)
CC50 (Vero [7]; Chlorocebus sabaeus, Vero): 22.1 µM (active)

CCCCN1CCC(O)(c2ccccc2)C(C(=O)c2ccccc2)C1 (stereo not drawn)
CC50 [12]: > 40 µM (active)
IC50 (cells [13]): 29.6 µM (active)

Cc1nc2ccccc2c(=O)n1/N=C/c1ccc2ccccc2c1O
EC50 [14]: 44.6 µM (active)
EC50 (cells [15]): > 350 µM (not active)
EC50 (Streptokinase A): > 150 µM (not active)
EC50 (cells [16]): > 350 µM (not active)
EC50 (Streptococcus): > 150 µM (not active)

COc1ccc(Cn2nnnc2C(c2cc3cc(C)ccc3nc2O)N2CCN(C)CC2)cc1 (stereo not drawn)
EC50 [9]: 1.88 µM (active)

CCCc1ccc(OCc2ccc(C(=O)N/N=C/c3cccnc3)o2)cc1
CC50 [12]: > 40 µM (active)
IC50 (cells [13]): 47.6 µM (active)

CCOC(=O)C1(CCOc2ccccc2)CCN(Cc2cccs2)CC1
EC50 [9]: 4.22 µM (active)

CNCCNC[C@H](Cc1cccc2ccccc12)NCCc1ccccc1
IC50 (Vero [6]; Chlorocebus sabaeus, Vero): 20.4 µM (active)
